In patent US20170107482A1, “ANIMAL CELL REGENERATION SPEED CONTROLLING METHOD AND ANIMAL CELL REGENERATION SPEED CONTROLLER” (TOYOTA BOSHOKU KABUSHIKI KAISHA, priority 2015, published 2017):

System: Planarians (Dugesia japonica)
Assay: Animal cell regeneration experiment (ii): head (eye) regeneration of cut planarians after immersion in Azakenpaullone
Type: in vivo
Settings: 0.5 μM, 24 h immersion; for individuals died and disappeared before regeneration: among the total nine individuals
Description: Hereinafter, the present invention will be specifically described using Examples. In the following Examples 1 and 2, regeneration experiment was conducted using Planarians (Dugesia japonica) as one kind of flatworm.
Thereafter, the planarians belonging to Groups A and B were respectively placed in petri dishes, so that the amount of water per planarian was 2.5 mL, in a thermostat bath set to a temperature of 13° C. The planarians were grown for 14 days ([…]) under a condition and in an environment such that water was changed every three days. The respective regeneration states of their heads in this period were observed over time with an optical microscope every 24 hours after cutting to evaluate the degree of regeneration after 14 days had elapsed based on the following three references (see Teresa Adel et al., Dev Genes Evol (2008) 218:89-103, as for the references for the degree of regeneration). The planarians ranked as “regeneration degree 2” or “regeneration degree 3” were determined to “have been regenerated,” and those ranked as “regeneration degree 1” were determined to “be unregenerated.” The number of planarians determined to “have been regenerated” was counted over time, and the result thereof is indicated in Table 1.
“Regeneration degree 1”: Eyes being developed cannot be identified.
“Regeneration degree 2”: Eyes being developed can be identified.
“Regeneration degree 3”: Eyes can be identified.
Firstly, planarians having an equivalent size were selected, and divided into Group C (n=9) and Group D (n=9). For the planarians belonging to Group C, the living bodies were cut near the center at a timing in the same time zone as that for Group A in Example 1 (namely, immediately after the RGA turned downward from the maximum value immediately before) (see FIG. 2).
For the planarians (n=9) belonging to Group D, the living bodies were cut near the center at a timing in the same time zone as that for Group B in Example 1 (namely, immediately after the RGA turned upward from the minimum value immediately before) (see FIG. 2).
Thereafter, the planarians belonging to Groups C and D were respectively immersed for 24 hours in a solution of Azakenpaullone that is a drug suppressing normal differentiation at a concentration of 0.5 μM, then placed in petri dishes, so that the amount of water per planarian was 2.5 mL, in a thermostat bath set to a temperature of 13° C., and were grown for 15 days ([…]) under a condition and in an environment such that water was changed every three days. The respective regeneration states of their heads were observed over time with an optical microscope every 24 hours after cutting to evaluate the degree of regeneration after 15 days had elapsed in the same manner as in Example 1. At this time, the planarians were determined as to whether they “had been regenerated” or “were unregenerated” in the same manner as in Example 1. The number of planarians determined to “have been regenerated” was counted over time, and the result thereof is indicated in Table 2.
The treating method using Azakenpaullone was referred to a description of Teresa Adel et al., Dev Genes Evol 218(2008) 89-103.

Question: O=C1Cc2c([nH]c3ccc(Br)cc23)-c2ncccc2N1 [Azakenpaullone] was tested. Which “Number of planarians determined to have been regenerated (cumulative)” value (“Number of planarians determined” for short) (Group C (n=9), cut immediately after RGA turned downward from maximum, 0 h after cutting) did it give?
Answer: 0

Question: What about the “Number of planarians determined” value (Group C (n=9), cut immediately after RGA turned downward from maximum, 24 h after cutting) of the same molecule?
Answer: 0

Question: And the “Number of planarians determined” value (Group C (n=9), cut immediately after RGA turned downward from maximum, 48 h after cutting)?
Answer: 0

Question: And the “Number of planarians determined” value (Group C (n=9), cut immediately after RGA turned downward from maximum, 72 h after cutting)?
Answer: 0

Question: What about the “Number of planarians determined” value (Group C (n=9), cut immediately after RGA turned downward from maximum, 96 h after cutting) of the same molecule?
Answer: 0

Question: What about the “Number of planarians determined” value (Group C (n=9), cut immediately after RGA turned downward from maximum, 120 h after cutting) of the same molecule?
Answer: 0

Question: And the “Number of planarians determined” value (Group C (n=9), cut immediately after RGA turned downward from maximum, 144 h after cutting)?
Answer: 0

Question: What about the “Number of planarians determined” value (Group C (n=9), cut immediately after RGA turned downward from maximum, 168 h after cutting) of the same molecule?
Answer: 0

Question: What about the “Number of planarians determined” value (Group C (n=9), cut immediately after RGA turned downward from maximum, 192 h after cutting) of the same molecule?
Answer: 0

Question: And the “Number of planarians determined” value (Group C (n=9), cut immediately after RGA turned downward from maximum, 216 h after cutting)?
Answer: 1

Question: What about the “Number of planarians determined” value (Group C (n=9), cut immediately after RGA turned downward from maximum, 240 h after cutting) of the same molecule?
Answer: 2

Question: And the “Number of planarians determined” value (Group C (n=9), cut immediately after RGA turned downward from maximum, 264 h after cutting)?
Answer: 2

Question: And the “Number of planarians determined” value (Group C (n=9), cut immediately after RGA turned downward from maximum, 288 h after cutting)?
Answer: 3

Question: What about the “Number of planarians determined” value (Group C (n=9), cut immediately after RGA turned downward from maximum, 312 h after cutting) of the same molecule?
Answer: 4

Question: What about the “Number of planarians determined” value (Group C (n=9), cut immediately after RGA turned downward from maximum, 336 h after cutting) of the same molecule?
Answer: 4

Question: What about the “Number of planarians determined” value (Group C (n=9), cut immediately after RGA turned downward from maximum, 360 h after cutting) of the same molecule?
Answer: 5

Question: And the “individuals died and disappeared before regeneration” value (Group C, cut immediately after RGA turned downward)?
Answer: four

Question: And the “Number of planarians determined” value (Group D (n=9), cut immediately after RGA turned upward from minimum, 0 h after cutting)?
Answer: 0

Question: And the “Number of planarians determined” value (Group D (n=9), cut immediately after RGA turned upward from minimum, 24 h after cutting)?
Answer: 0

Question: What about the “Number of planarians determined” value (Group D (n=9), cut immediately after RGA turned upward from minimum, 48 h after cutting) of the same molecule?
Answer: 0

Question: And the “Number of planarians determined” value (Group D (n=9), cut immediately after RGA turned upward from minimum, 72 h after cutting)?
Answer: 0

Question: What about the “Number of planarians determined” value (Group D (n=9), cut immediately after RGA turned upward from minimum, 96 h after cutting) of the same molecule?
Answer: 0

Question: What about the “Number of planarians determined” value (Group D (n=9), cut immediately after RGA turned upward from minimum, 120 h after cutting) of the same molecule?
Answer: 0

Question: And the “Number of planarians determined” value (Group D (n=9), cut immediately after RGA turned upward from minimum, 144 h after cutting)?
Answer: 0

Question: What about the “Number of planarians determined” value (Group D (n=9), cut immediately after RGA turned upward from minimum, 168 h after cutting) of the same molecule?
Answer: 0

Question: And the “Number of planarians determined” value (Group D (n=9), cut immediately after RGA turned upward from minimum, 192 h after cutting)?
Answer: 0

Question: What about the “Number of planarians determined” value (Group D (n=9), cut immediately after RGA turned upward from minimum, 216 h after cutting) of the same molecule?
Answer: 0

Question: What about the “Number of planarians determined” value (Group D (n=9), cut immediately after RGA turned upward from minimum, 240 h after cutting) of the same molecule?
Answer: 6

Question: What about the “Number of planarians determined” value (Group D (n=9), cut immediately after RGA turned upward from minimum, 264 h after cutting) of the same molecule?
Answer: 6

Question: What about the “Number of planarians determined” value (Group D (n=9), cut immediately after RGA turned upward from minimum, 288 h after cutting) of the same molecule?
Answer: 6

Question: And the “Number of planarians determined” value (Group D (n=9), cut immediately after RGA turned upward from minimum, 312 h after cutting)?
Answer: 6

Question: What about the “Number of planarians determined” value (Group D (n=9), cut immediately after RGA turned upward from minimum, 336 h after cutting) of the same molecule?
Answer: 6

Question: What about the “Number of planarians determined” value (Group D (n=9), cut immediately after RGA turned upward from minimum, 360 h after cutting) of the same molecule?
Answer: 6

Question: What about the “individuals died and disappeared before regeneration” value (Group D, cut immediately after RGA turned upward) of the same molecule?
Answer: three
